The values that follow come from ChEMBL document CHEMBL4270534, “Novel carbazole-triazole conjugates as DNA-targeting membrane active potentiators against clinical isolated fungi” (Eur J Med Chem, 2018).

Converted amounts (≈) assume the structure as drawn. The source made the active and inactive calls.

Usually MIC stands for the lowest concentration that inhibits growth of the organism. Broadly, the MFC is the smallest concentration meeting the test's criterion for killing the fungus. A high value points to less potent killing.

Series [1] relates to Candida albicans. In words: Antifungal activity against Candida albicans after 24 hrs by two-fold broth microdilution assay. Type of series: functional. On the technique in general: Dilution methods test growth across graded concentrations, often in twofold steps.
Series [2] has as its system Candida tropicalis. Description: Antifungal activity against Candida tropicalis after 24 hrs by two-fold broth microdilution assay. Type of series: functional.
For series [3], the system named is Aspergillus fumigatus. In words: Antifungal activity against Aspergillus fumigatus after 24 hrs by two-fold broth microdilution assay. Type of series: functional.
Series [4] deals with Candida albicans. In words: Antifungal activity against Candida albicans ATCC 90023 after 24 hrs by two-fold broth microdilution assay. The format is functional. As to conditions: ATCC 90023, 24 h.
Series [5] has as its system Candida parapsilosis. In words: Antifungal activity against Candida parapsilosis ATCC 22019 after 24 hrs by two-fold broth microdilution assay. The format is functional. The settings on record: Lodderomyces parapsilosis, ATCC 22019, 24 h.
Series [6] concerns Candida albicans. Description: Antifungal activity against Candida albicans assessed as ratio of MIC after and before 10 serial passages. Type of series: functional.
The test system of series [7] is Candida albicans. Description: Fungicidal activity against Candida albicans incubated for 24 hrs followed by plating onto tryptic soy agar medium and measured after 24 hrs by broth microdilution method. The format is functional.
The subject of series [8] is Candida tropicalis. Description: Fungicidal activity against Candida tropicalis incubated for 24 hrs followed by plating onto tryptic soy agar medium and measured after 24 hrs by broth microdilution method. Type of series: functional.
For series [9], the system named is Candida parapsilosis. In words: Fungicidal activity against Candida parapsilosis ATCC 22019 incubated for 24 hrs followed by plating onto tryptic soy agar medium and measured after 24 hrs by broth microdilution method. The format is functional. The settings on record: Lodderomyces parapsilosis, ATCC 22019, 24 h.
Series [10] has as its system Candida albicans. Description: Ratio of MFC to MIC for Candida albicans. The format is functional.
In series [11] the test system is Candida tropicalis. Description: Ratio of MFC to MIC for Candida tropicalis. The format is functional.
The subject of series [12] is Candida parapsilosis. Description: Ratio of MFC to MIC for Candida parapsilosis ATCC 22019. Type of series: functional.
Series [13] deals with Candida albicans. In words: Synergistic antifungal activity against Candida albicans after 18 hrs in presence of fluconazole by checkerboard assay. The format is functional.
The subject of series [14] is Candida tropicalis. In words: Synergistic antifungal activity against Candida tropicalis after 18 hrs in presence of fluconazole by checkerboard assay. Type of series: functional.
Series [15] concerns Aspergillus fumigatus. Description: Synergistic antifungal activity against Aspergillus fumigatus after 18 hrs in presence of fluconazole by checkerboard assay. Type of series: functional.
Series [16] relates to Candida albicans. In words: Synergistic antifungal activity against Candida albicans assessed as FIC index after 18 hrs in presence of fluconazole by checkerboard assay. The format is functional.
Series [17] relates to Candida tropicalis. In words: Synergistic antifungal activity against Candida tropicalis assessed as FIC index after 18 hrs in presence of fluconazole by checkerboard assay. The format is functional.
For series [18], the system named is Aspergillus fumigatus. In words: Synergistic antifungal activity against Aspergillus fumigatus assessed as FIC index after 18 hrs in presence of fluconazole by checkerboard assay. The format is functional.
The subject of series [19] is Staphylococcus aureus. In words: Antibacterial activity against Staphylococcus aureus after 24 hrs by micro broth dilution method. The format is functional.
The subject of series [20] is Staphylococcus aureus. In words: Antibacterial activity against methicillin-resistant Staphylococcus aureus after 24 hrs by micro broth dilution method. Type of series: functional.
The subject of a further series is Enterococcus faecalis. Description: Antibacterial activity against Enterococcus faecalis after 24 hrs by micro broth dilution method. The format is functional.
The test system of series [21] is Staphylococcus aureus. Description: Antibacterial activity against Staphylococcus aureus ATCC 25923 after 24 hrs by micro broth dilution method. Type of series: functional. As to conditions: ATCC 25923, 24 h.
Series [22] relates to Staphylococcus aureus. Description: Antibacterial activity against Staphylococcus aureus ATCC 29213 after 24 hrs by micro broth dilution method. Type of series: functional. As to conditions: ATCC 29213, 24 h.
The test system of another series is Klebsiella pneumoniae. In words: Antibacterial activity against Klebsiella pneumoniae after 24 hrs by micro broth dilution method. The format is functional.
In series [23] the test system is Escherichia coli. Description: Antibacterial activity against Escherichia coli after 24 hrs by micro broth dilution method. Type of series: functional.
The test system of a further series is Acinetobacter baumannii. Description: Antibacterial activity against Acinetobacter baumannii after 24 hrs by micro broth dilution method. Type of series: functional.
Series [24] has as its system Pseudomonas aeruginosa. Description: Antibacterial activity against Pseudomonas aeruginosa after 24 hrs by micro broth dilution method. The format is functional.
For series [25], the system named is Pseudomonas aeruginosa. In words: Antibacterial activity against Pseudomonas aeruginosa ATCC 27853 after 24 hrs by micro broth dilution method. The format is functional. As to conditions: ATCC 27853, 24 h.
Series [26] deals with Escherichia coli. Description: Antibacterial activity against Escherichia coli ATCC 25922 after 24 hrs by micro broth dilution method. The format is functional. As to conditions: ATCC 25922, 24 h.
In series [27] the test system is Candida albicans. Description: Antifungal activity against Candida albicans at MIC after 10 serial passages. Type of series: functional, organism-based.
Series [28] concerns Candida tropicalis. Description: Potency index, ratio of fluconazole MIC to test compound MIC for Candida tropicalis. The format is functional.
Series [29] deals with Candida parapsilosis. Description: Potency index, ratio of fluconazole MIC to test compound MIC for Candida parapsilosis ATCC 22019. The format is functional.
For series [30], the system named is Candida albicans. In words: Potentiation of fluconazole-induced antifungal activity against Candida albicans at MIC after 16 serial passages. The format is functional, organism-based.
For series [31], the system named is Candida albicans. In words: Induction of cytoplasmic membrane depolarization in Candida albicans measured for 300 secs by DiSC3-5 dye based fluorescence spectral analysis. The format is functional, organism-based.
Series [32] concerns Calf thymus DNA. Description: Binding affinity to calf thymus DNA assessed as hypochromic shift up to 2 x 10^-5mol/L by UV absorption spectral analysis. The format is nucleic-acid assay. The settings on record: Bos taurus.
Series [33] concerns Calf thymus DNA. In words: Binding affinity to calf thymus DNA by UV absorption spectral analysis. Type of series: nucleic-acid assay. As to conditions: Bos taurus.
For series [34], the system named is Calf thymus DNA. Description: Displacement of neutral dye from calf thymus DNA up to 2 x 10^-5mol/L by UV absorption spectra analysis. Type of series: nucleic-acid assay. As to conditions: Bos taurus.
The test system of series [35] is Calf thymus DNA. In words: Binding affinity to calf thymus DNA assessed as Stern-Volmer quenching constant at 1 x 10^-5 mol/L in presence of potassium iodide by fluorescence assay (reference value: 12.9 L/mol). Type of series: nucleic-acid assay. As to conditions: Bos taurus.
The target of another series is Albumin (Homo sapiens, UniProt P02768). In words: Binding affinity to human serum albumin assessed as increase in peak intensity at tryptophan/tyrosine/phenylalanine residue up to 2 x 10^-5mol/L by UV-vis absorption spectra analysis. Type of series: ADME. The settings on record: isolated protein.
Albumin, sequence (P02768 whole entry): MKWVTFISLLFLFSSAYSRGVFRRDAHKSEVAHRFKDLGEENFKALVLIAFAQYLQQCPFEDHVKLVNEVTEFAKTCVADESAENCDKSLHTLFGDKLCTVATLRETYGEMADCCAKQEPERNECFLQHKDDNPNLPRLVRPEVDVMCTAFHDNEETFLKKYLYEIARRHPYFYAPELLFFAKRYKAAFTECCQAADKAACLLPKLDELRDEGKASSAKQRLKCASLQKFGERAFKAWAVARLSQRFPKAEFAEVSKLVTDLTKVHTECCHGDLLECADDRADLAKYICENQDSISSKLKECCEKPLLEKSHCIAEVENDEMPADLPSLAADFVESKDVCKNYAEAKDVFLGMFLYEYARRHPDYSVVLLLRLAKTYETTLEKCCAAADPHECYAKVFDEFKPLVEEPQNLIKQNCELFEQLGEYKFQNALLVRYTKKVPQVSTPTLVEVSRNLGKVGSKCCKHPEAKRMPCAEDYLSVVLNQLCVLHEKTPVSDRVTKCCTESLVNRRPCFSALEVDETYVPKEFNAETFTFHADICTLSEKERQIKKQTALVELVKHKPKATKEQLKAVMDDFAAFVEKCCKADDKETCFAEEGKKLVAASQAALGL

`OC(Cn1cncn1)(Cn1cncn1)c1ccc(F)cc1F` [FLUCONAZOLE]: the MIC in the series with Candida albicans [1] was found to be 4 µg/mL (≈ 13.1 µM); in the series with Candida tropicalis [2], 8 µg/mL (≈ 26.1 µM); against Aspergillus fumigatus [3], 256 µg/mL (≈ 836 µM); against Candida albicans [4], 2 µg/mL (≈ 6.53 µM); in the series with Candida parapsilosis [5] it was 4 µg/mL (≈ 13.1 µM). For the same compound, the Ratio in the series on Candida albicans [6] came to 8.
Take `OC(Cn1cncn1)(Cn1c2ccccc2c2ccccc21)c1ccc(F)cc1F` (configuration not stated): the MIC stood at 32 µg/mL (≈ 79.1 µM) in the series on Candida albicans [1]; 8 µg/mL (≈ 19.8 µM) with Candida tropicalis [2]; 128 µg/mL (≈ 317 µM) with Aspergillus fumigatus [3]; 16 µg/mL (≈ 39.6 µM) against Candida albicans [4]; 8 µg/mL (≈ 19.8 µM) against Candida parapsilosis [5]; 2 µg/mL with Candida albicans [13]. For the same compound, the MIC is 4 µg/mL in the series on Candida tropicalis [14]; 32 µg/mL with Aspergillus fumigatus [15]; 64 µg/mL (≈ 158 µM) against Staphylococcus aureus [19]; 64 µg/mL (≈ 158 µM) with Staphylococcus aureus [20]; 16 µg/mL (≈ 39.6 µM) against Enterococcus faecalis; 32 µg/mL (≈ 79.1 µM) against Staphylococcus aureus [21]. Further, the minimum inhibitory concentration (MIC) with Staphylococcus aureus [22] came out at 32 µg/mL (≈ 79.1 µM); in the series with Klebsiella pneumoniae it was 64 µg/mL (≈ 158 µM); with Escherichia coli [23], 128 µg/mL (≈ 317 µM); in the series with Acinetobacter baumannii, 128 µg/mL (≈ 317 µM); in the series with Pseudomonas aeruginosa [24] it was 128 µg/mL (≈ 317 µM); in the series with Pseudomonas aeruginosa [25], 256 µg/mL (≈ 633 µM). Moreover, inhibition of growth with Escherichia coli [26] (MIC) required 128 µg/mL (≈ 317 µM). The values for the MFC in the series on Candida albicans [7], against Candida tropicalis [8] and in the series on Candida parapsilosis [9] were 32 µg/mL (≈ 79.1 µM), 16 µg/mL (≈ 39.6 µM) and 32 µg/mL (≈ 79.1 µM), respectively. Moreover, the Ratio with Candida albicans [10] is 1; in the series with Candida tropicalis [11], 2; in the series on Candida parapsilosis [12] it was 4. Further, the entries for the “fractional inhibitory concentration index (FICI)” value in the series with Candida albicans [16], with Candida tropicalis [17] and with Aspergillus fumigatus [18] were 0.56, 1 and 0.37, respectively.
Regarding `OC(Cn1cncn1)(Cn1c2ccc(Br)cc2c2cc(Br)ccc21)c1ccc(F)cc1F` (configuration not stated), the result in the series on Candida albicans [27], with Candida albicans [30], in the series with Calf thymus DNA [32] and in the series on Calf thymus DNA [34] was Active. Moreover, the MIC against Candida albicans [1] was 4 µg/mL (≈ 7.11 µM); in the series on Candida tropicalis [2], 4 µg/mL (≈ 7.11 µM); against Aspergillus fumigatus [3], 32 µg/mL (≈ 56.9 µM); against Candida albicans [4], 8 µg/mL (≈ 14.2 µM); in the series with Candida parapsilosis [5] it was 2 µg/mL (≈ 3.56 µM); with Candida albicans [13], 0.5 µg/mL. The MIC is 2 µg/mL with Candida tropicalis [14]; 16 µg/mL in the series on Aspergillus fumigatus [15]; 64 µg/mL (≈ 114 µM) in the series with Staphylococcus aureus [19]; 4 µg/mL (≈ 7.11 µM) in the series on Staphylococcus aureus [20]; 32 µg/mL (≈ 56.9 µM) with Enterococcus faecalis; 32 µg/mL (≈ 56.9 µM) against Staphylococcus aureus [21]. For the same compound, the MIC came to 16 µg/mL (≈ 28.5 µM) with Staphylococcus aureus [22]; 128 µg/mL (≈ 228 µM) in the series on Klebsiella pneumoniae; 16 µg/mL (≈ 28.5 µM) with Escherichia coli [23]; 128 µg/mL (≈ 228 µM) against Acinetobacter baumannii; 64 µg/mL (≈ 114 µM) in the series with Pseudomonas aeruginosa [24]; 16 µg/mL (≈ 28.5 µM) with Pseudomonas aeruginosa [25]. Further, inhibition of growth in the series with Escherichia coli [26] (MIC) required 32 µg/mL (≈ 56.9 µM). Besides, the Ratio in the series with Candida tropicalis [28], in the series on Candida parapsilosis [29], in the series on Candida albicans [10], in the series on Candida tropicalis [11] and in the series with Candida parapsilosis [12] was 2 in each case. Moreover, the MFC against Candida albicans [7] is 8 µg/mL (≈ 14.2 µM); in the series on Candida tropicalis [8], 8 µg/mL (≈ 14.2 µM); with Candida parapsilosis [9] it was 4 µg/mL (≈ 7.11 µM). In addition, the figures for the “fractional inhibitory concentration index (FICI)” value in the series with Candida albicans [16], in the series with Candida tropicalis [17] and in the series on Aspergillus fumigatus [18] were 0.25, 0.75 and 0.56, respectively. In addition, the Activity result in the series on Candida albicans [31] was “Dose-dependent effect”; at Albumin, “Active”. Besides, the K in the series on Calf thymus DNA [33] is 7.8 ×10³ L/mol. The KSV in the series with Calf thymus DNA [35] came out at 10 L/mol.
